Compared with CC(C)(CO)COc1cccc2c1cnn2-c1ccnc(N[C@H]2CC[C@H](C(=O)N3CCC(O)CC3)CC2)n1 [Compound 227, (4-{4-[4-(3-hydroxy-2,2-dimethylpropoxy)-indazol-1-yl]-pyrimidin-2-ylamino}-cyclohexyl)-(4-hydroxy-piperidin-1-yl)-methanone], N#CCCCOc1cccc2c1cnn2-c1ccnc(N[C@H]2CC[C@H](C(=O)N3CCC(O)CC3)CC2)n1 [Compound 226, 4-(1-{2-[4-(4-hydroxy-piperidine-1-carbonyl)-cyclohexylamino]-pyrimidin-4-yl}-1H-indazol-4-yloxy)-butyro-nitrile] is lower in melting point: 213 to 214.5 °C for the first, 201 to 202 °C for the second.

First: O=C([C@H]1CC[C@H](Nc2nccc(-n3ccc4c(OCC(F)(F)F)cccc43)n2)CC1)N1CCC(O)CC1 [Compound 279, (4-hydroxy-piperidin-1-yl)-(4-{4-[4-(2,2,2-trifluoroethoxy)-indol-1-yl]-pyrimidin-2-yl-amino}-cyclohexyl)-methanone]
Second: O=C([C@H]1CC[C@H](Nc2nccc(-n3ccc4c(OCC(O)CC(F)(F)F)cccc43)n2)CC1)N1CCC(O)CC1 (stereo partly drawn) [Compound 288]
The melting point of the first is lower: 140.7 to 143.3 °C for the first, 215 to 215.5 °C for the second.

Compared with CC(C)(C)OC(=O)N[C@H]1CC[C@H](Nc2nccc(-n3ccc4c(OCCCS(C)(=O)=O)cccc43)n2)CC1 [Compound 181, (4-{4-[4-(3-methane-sulfonyl-propoxy)-indol-1-yl]-pyrimidin-2-ylamino}-cyclohexyl)-carbamic acid t-butyl ester], CS(=O)(=O)CCCOc1cccc2c1ccn2-c1ccnc(N[C@H]2CC[C@H](NC(=O)CCN)CC2)n1.Cl is higher in melting point: 227.5 to 228.5 °C for the first, 263 to 264 °C for the second.

Compared with CC(=O)N[C@H]1CC[C@H](Nc2nccc(-n3ncc4c(OC[C@@H](O)CO)cccc43)n2)CC1 (stereo in doubt) [Compound 154, N-(4-{4-[4-(2,3-di-hydroxy-propoxy)-indazol-1-yl]-pyrimidin-2-ylamino}-cyclohexyl)-acetamide], C[C@H]1CC[C@H](Nc2nccc(-n3ncc4c([N+](=O)[O-])cccc43)n2)CC1 [Example 4, trans-(4-Methyl-cyclohexyl)-[4-(4-nitro-indazol-1-yl)-pyrimidin-2-yl]-amine] is higher in melting point: 202 to 205 °C for the first, 253.9 to 254.8 °C for the second.

First: CS(=O)(=O)CCCOc1cccc2c(-c3ccnc(N[C@H]4CC[C@H](C(=O)N5CCC(O)CC5)CC4)n3)noc12 [Compound 307, (4-hydroxy-piperidin-1-yl)-(4-{4-[7-(3-methane-sulfonyl-propoxy)-benzo[d]isoxazol-3-yl]-pyrimidin-2-ylamino}-cyclohexyl)-methanone]
Second: CS(=O)(=O)CCCOc1cccc2c(-c3ccnc(N[C@H]4CC[C@H](NS(C)(=O)=O)CC4)n3)noc12 [Compound 306, N-(4-{4-[7-(3-methane-sulfonyl-propoxy)-benzo[d]isoxazol-3-yl]-pyrimidin-2-ylamino}-cyclohexyl)-methane-sulfonamide]
The melting point of the first is lower: 186 to 187 °C for the first, 225 to 226 °C for the second.

Compared with CN([C@H]1CC[C@H](Nc2nccc(-n3ccc4c(CC#N)cccc43)n2)CC1)S(C)(=O)=O [Compound 163, N-{4-[4-(4-cyano-methyl-indol-1-yl)-pyrimidin-2-ylamino]-cyclohexyl}-N-methyl-methanesulfonamide], CC(C#N)c1cccc2c1ccn2-c1ccnc(N[C@H]2CC[C@H](N(C)S(C)(=O)=O)CC2)n1 (stereo partly drawn) [Compound 174, N-(4-{4-[4-(1-cyano-ethyl)-indol-1-yl]-pyrimidin-2-ylamino}-cyclohexyl)-N-methyl-methanesulfonamide] is higher in melting point: 187.8 to 189 °C for the first, 196 to 197 °C for the second.

First: CS(=O)(=O)N[C@H]1CC[C@H](Nc2nccc(-n3ccc4c(OCC(O)CC(F)(F)F)cccc43)n2)CC1 (stereo partly drawn) [Compound 314, N-(4-{4-[4-(4,4,4-trifluoro-2-hydroxy-butoxy)-indol-1-yl]-pyrimidin-2-ylamino}-cyclohexyl)-methanesulfonamide]
Second: CS(=O)(=O)N[C@H]1CC[C@H](Nc2nccc(-n3ccc4c(CC#N)cccc43)n2)CC1 [Compound 110, N-{4-[4-(4-cyano-methyl-indol-1-yl)-pyrimidin-2ylamino]-cyclohexyl}-methane-sulfonamide]
The melting point of the first is lower: 220.7 to 221.5 °C for the first, 235 to 235.5 °C for the second.

First: CS(=O)(=O)CCOCc1cccc2c1ccn2-c1ccnc(N[C@H]2CC[C@H](O)CC2)n1 [Compound 138, 4-{4-[4-(2-methane-sulfonyl-ethoxymethyl)-indol-1-yl]-pyrimidin-2-ylamino}-cyclohexanol]
Second: CCS(=O)(=O)Cc1cccc2c1ccn2-c1ccnc(N[C@H]2CC[C@H](O)CC2)n1 [Compound 108, 4-[4-(4-ethanesulfonyl-methyl-indol-1-yl)-pyrimidin-2-ylamino]-cyclohexanol]
The melting point of the first is lower: 119.5 to 121 °C for the first, 193.3 to 194.6 °C for the second.

First: Cn1nc(-c2ccnc(N[C@H]3CC[C@H](O)CC3)n2)c2ccccc21 [Compound 77, 4-[4-(1-methyl-1H-indazol-3-yl)pyridimidin-2-ylamino]-cyclo-hexanol]
Second: CC(O)CCNC(=O)[C@H]1CC[C@H](Nc2nccc(-n3ncc4ccccc43)n2)CC1 (stereo partly drawn) [Example 5, trans-4-(4-Indazol-1-ylpyrimidin-2-ylamino)-cyclohexane-carboxylic acid (3-hydroxy-butyl)-amide]
The melting point of the first is lower: 180 to 183.3 °C for the first, 248.5 to 252.5 °C for the second.

First: CS(=O)(=O)CCCOc1cccc2c1ccn2-c1ccnc(N[C@H]2CC[C@H](C(=O)N3CCC(NC4CC4)CC3)CC2)n1 [Compound 302, (4-cyclopropylamino-piperidin-1-yl)-(4-{4-[4-(3-methanesulfonyl-propoxy)-indol-1-yl]-pyrimidin-2-ylamino}-cyclohexyl)-methanone]
Second: CS(=O)(=O)CCCOc1cccc2c1ccn2-c1ccnc(N[C@H]2CC[C@H](CCl)CC2)n1 [Compound 285, (4-chloromethyl-cyclo-hexyl)-{4-[4-(3-methane-sulfonyl-propoxy)-indol-1-yl]-pyrimidin-2-yl}-amine]
The melting point of the first is higher: 196.3 to 197.9 °C for the first, 152 to 155 °C for the second.

First: CN(c1cccc2c1ccn2-c1ccnc(N[C@H]2CC[C@H](C(C)(C)O)CC2)n1)S(C)(=O)=O [Compound 164, N-(1-{2-[4-(1-hydroxy-1-methyl-ethyl)-cyclo-hexylamino]-pyrimidin-4-yl}-1H-indol-4-yl)-N-methyl-methanesulfonamide]
Second: CC(C)(O)c1cccc2c1ccn2-c1ccnc(N[C@H]2CC[C@H](N3CCCS3(=O)=O)CC2)n1 [Compound 179, 2-(1-{2-[4-(1,1-dioxo-isothiazolidin-2yl)-cyclohexylamino}-pyrimidin-4-yl}-1H-indol-4-yl)-propan-2-ol]
The melting point of the first is higher: 216.5 to 217.5 °C for the first, 206.9 to 207.6 °C for the second.

First: C[C@@H]1CC[C@@H](C)N1C(=O)[C@H]1CC[C@H](Nc2nccc(-n3ncc4c(OCCCS(N)(=O)=O)cccc43)n2)CC1 (stereo in doubt) [Compound 271, 3-(1-{2-[4-(2,5-di-methyl-pyrrolidine-1-carbonyl)-cyclohexyl-amino]-pyrimidin-4-yl}-1H-indazol4-yloxy)-propane-1-sulfonic acid amide]
Second: CC(=O)N1CCN(c2cccc3c2ccn3-c2ccnc(N[C@H]3CC[C@H](NS(C)(=O)=O)CC3)n2)CC1 [Compound 267, N-(4-{4-[4-(4-acetyl-piperazin-1-yl)-indol-1-yl]-pyrimidin-2-yl-amino}-cyclohexyl)-methanesulfonamide]
The melting point of the first is lower: 230 to 231 °C for the first, 268 to 269 °C for the second.

From patent publication US8399462B2, “JNK modulators” (Roche Palo Alto LLC, priority 2006, dated 2013)
